Test results published in US11654110B2, “Composition and methods for the treatment of peripheral nerve injury” (UNIVERSITY OF ROCHESTER, priority 2013, dated 2023).

Assays:
[1] = intravenous and oral gelatin-based capsule treatments; cited from earlier work
crushed sciatic nerve [2] = assay: Sciatic nerve crush injury, sciatic function index (SFI) by walking track analysis; assay type: in vivo, mice
Description: There are also possible effects of the 4-AP on nerve injuries suffered more acutely. Acute nerve injury is both common and difficult to treat. One type of acute peripheral nerve injury with a murine model available for study is the sciatic nerve crush injury model in mice and rats. In this model, the nerve is crushed with a variable amount of force which creates a measurable functional deficit in gait. This deficit is measured using a sciatic function index which is an accepted and validated measure of the functional effects of the injury.
(§1) Mouse Model of Peripheral Nerve Injury. All procedures were approved by the University of Rochester Committee on Animal Resources. Female 10-week-old C57BL6 mice were performed sciatic nerve crush injury on the left hindlimb and the sham-surgery on the other one. All extensive surgery procedures were as described previously (Elfar et al., The Journal of Bone and Joint Surgery, 90: 1644-1653 (2008)). rhEPO was administered immediately at a dose of 5000 U/kg (Juul, Acta Paediatrica 91:36-42 (2002), Bianchi et al., PNAS 101:823-828 (2004), and Elfar et al., The Journal of Bone and Joint Surgery, 90:1644-1653 (2008)).
Sciatic Function Index (SFI) Determined by Walking Track Analysis. The assessment of motor function recovery was performed by calculating the sciatic function index (SFI). Walking track analysis was performed according to a published model that quantifies sciatic nerve function performance (de Medinaceli et al., Exp. Neurol. 77:634-643 (1982)). The operating procedure is extensively described previously (Elfar et al., The Journal of Bone and Joint Surgery, 90:1644-1653 (2008)). In brief, individual mouse footprints were obtained by painting each foot and walked down the 50 cm path in a narrow corridor lined with paper. Gaits were measured from the resulting footprints to get (1) toe spread (TS) (first through fifth toes), (2) print length (PL), and (3) intermediate toe spread (ITS) (second, third, and fourth toes) of both limbs (Gladman et al., The Journal of Neuroscience, 32:563-571 (2012)). All three measurements from the three most clearly inked foot prints per run were taken from the normal (N) and experimental (E) sides, and the SFI were calculated using the following formula: SFI=−38.3((EPL−NPL)/NPL)+109.5((ETS−NTS)/NTS)+13.3((EIT−NIT)/NIT)−8.8 where E is the injured limb and N is the control limb.

compressed nerves = assay: Nerve conduction velocity of chronically compressed nerve (sleeve around the nerve); assay type: in vivo, mice; settings: 4-AP IP single bolus; 7, 9, 12 weeks of compression
Description: FIGS. 1A, 1B and 1C show graphs of nerve conduction velocity at 7 weeks (FIG. 1A), 9 weeks (FIG. 1B) and 12 weeks (FIG. 1C) of compression and treatment with high dose 4-AP (HD), low dose of 4-AP (LD), and saline (Sal). 4-AP was administered IP in a single dose as a bolus.
The concept that 4-AP may have a role in the treatment of compressed nerves emanates from data showing that the conduction velocity of compressed nerves can respond strongly to pharmacologic treatment with this agent. […] Therefore, 4-AP may be used locally or systemically for the treatment of chronic compression injury.

[3] = tested on: Schwann cell-DRG neuron co-cultures; assay: DRG neuron and Schwann cell myelinating co-cultures, MBP+ myelin quantification; assay type: cell-based
Description: Primary Schwann Cell Culture.
Dorsal Root Ganglia (DRG) Neuron Cell Culture. DRG neurons were isolated from E18 embryos of Sprague-Dawley rats and 5,000 neurons were seeded in laminin/poly-L-lysine coated 48 well plates. Primary DRG neurons were maintained in Neurobasal media supplemented with B27 containing antioxidants, 50 ng/mL NGF, and 1 μM Ara-C. 1 μM Ara-C treatment was performed three times for two days each time following two days of fresh medium without Ara-C to eliminate fibroblasts. After two weeks, DRG neurons with extensive axons were seeded with Schwann cells for myelination tests (Syed et al., The Journal of Neuroscience 30:6122-6131 (2010)).
DRG Neuron and Schwann Cell Myelinating Co-cultures. Thirty thousand (30,000) Schwann cells were plated onto the DRG neurons per well. Co-cultures were maintained in differentiation media (DMEM/F12 (1:1), 50 ng/mL NGF, 1× N2 supplement) for a week. Co-cultures were then changed to myelinating medium (MEM, 50 ng/mL NGF, 50 μg/mL ascorbic acid, 10% FBS) for two weeks. Medium was changed every two days (Syed et al., The Journal of Neuroscience 30:6122-6131 (2010)). EPO was added three times at day 6 of differentiating stage, day 1, and day 3 of myelinating stage.
Myelin Quantification. To quantify the extent of myelination in co-cultures, the total number of MBP+ myelin was counted within the whole culture well and normalized by the total cell number (DAPI+).
To determine whether EPO enhances Schwann cell-mediated myelination directly we exposed Schwann cell-DRG neuron co-cultures to various concentrations of EPO (1, 10, 100 unit/mL of EPO). In FIG. 15A, every single short thread-like MBP+ staining cells representing a myelin formed by a single myelinating Schwann cell wrapped around the axon.

[4] = tested on: glutathione S-transferase and gamma-glutamylcysteine synthetase; settings: 100 U/mL EPO, isolated Schwann cell cultures
Source text: (unpaired t-test, n=4, p<0.01) FIG. 15D is a gel image of immunoblotting of glutathione S-transferase and gamma-glutamylcysteine synthetase levels in Schwann cells with 100 U/mL EPO treatment.

crushed sciatic nerve [5] = assay: Immunofluorescent staining of myelinated (P0+) and total (neurofilament+) axons in crushed sciatic nerve; assay type: in vivo, mice; settings: systemic EPO directly after crush; 7 days post-injury
Source text: FIGS. 14A, 14B, and 14C are images and a graph showing EPO supported preservation of myelin within crushed nerves. FIG. 14A is an image of the immunofluorescent staining of destroyed myelin sheath at the injured site 7 days post-injury. FIG. 14B is an image showing immunofluorescent staining of myelinated axons and total axons in the cross sections of sciatic nerves 7 days post-injury. Representative images of the cross sections of the sciatic nerves (a, d: healthy nerve; b, c, e, f: crushed nerve). FIG. 14C is a graph showing the ratio of the number of myelinated axon to total axons of crushed sciatic nerves with or without EPO administration. (unpaired t-test, n=3, three animals for each set, p<0.01).
as §1
To work towards the underlying action by which EPO works, it was noticed that the speed of recovery in injured mice was too rapid to be attributable to axonal regeneration. 4-aminopyridine (4-AP) is a potassium channel blocker which enables demyelinated axons to conduct impulses, and thus can be used to identify injuries in which whether there exist anatomically intact but demyelinated axons. Mice receiving a sciatic nerve crush injury, performed poorly in SFI tests 3 days after injury. […] The effect of 4-AP raises the possibility that the benefits of EPO may be due to preservation of myelin and/or improvement of remyelination. […] In untreated mice only 25% of axons (neurofilament+) were associated with myelin (P0+) whereas EPO treatment raised this ratio to 60%.

Compound: Nc1ccncc1 [4-AP, 4-aminopyridine]
- plasma half-life [1]: 3 to 4 h
- time to maximum plasma concentration [1]: about 1 hour
- sciatic function index (gait) (crushed sciatic nerve [2]; 4-AP administered systemically on day 3 or day 5 after crush injury): large improvement in the function of the animals gait
- SFI (crushed sciatic nerve [2]; intraperitoneal 100 μg 4-AP, 3 days after injury): significant transient improvement in SFI
- conduction velocity of compressed nerve (ratio to contralateral uninjured nerve) (compressed nerves): strong effects of 4-AP administration was seen

Compound: CC(=O)NC(C(=O)O)C(C)(C)SN=O (racemic) [SNAP, S-Nitroso-N-acetyl-DL-penicillamine, reference compound]
- baseline myelination ([3]; 100 μM SNAP): robust decrease in baseline myelination
- cell death ([3]; 100 μM SNAP): significant cell death was not observed

Compound: EPO: Recombinant human erythropoietin, 30.4-kDa hematopoietic glycoprotein
- glutathione S-transferase and gamma-glutamylcysteine synthetase levels [4]: up-regulated
- functional improvements in SFI over control groups (crushed sciatic nerve [2]; local EPO in fibrin glue vehicle at the site of crush injury, 0.5 U): 15%
- SFI function, higher than in untreated animals (crushed sciatic nerve [2]; single subcutaneous EPO 5000 U/kg directly after injury, 7 days after injury): 20%
- SFI more restored compared to control group (crushed sciatic nerve [2]; single subcutaneous EPO 5000 U/kg directly after injury, day 14 after injury): 15%
- hind limb / foot appearance (crushed sciatic nerve [2]; systemic EPO 5000 U/kg, seven days post-surgery): close-to-normal appearance
- number of axons (crushed sciatic nerve [5]): without significantly altering the number of axons
- number of myelinated fibers versus untreated (crushed sciatic nerve [5]): almost tripled
- ratio of myelinated (P0+) axons to total axons (neurofilament+) (crushed sciatic nerve [5]): 60%
- myelin formation under NO stress ([3]; 100 μM SNAP with 100 U/mL EPO): notably recovered myelin formation
- total number of MBP+ myelin ([3]; 1, 10, 100 unit/mL of EPO): increased the total number of the MBP+ myelin in co-culture and was found to be dose-dependent
